{
  "source": "patent US7271187B2",
  "about": "“Compositions and methods for promoting tissue regeneration” (priority 2000, dated 2007)",
  "key": {"[1]": {"system": "cortical neurons on aged astrocytes", "assay": "Growth of cortical neurons on aged astrocytes, count of tubulin-positive neurons", "assay_type": "cell-based, Sprague Dawley rat", "details": "1 week after treatment; for Number of Neurons, Well 2 / Number of Neurons, Well 4: control 74; for Number of Neurons, Well 3: control 89; for Number of Neurons, mean: control 82.50", "method": "Astrocytes: postnatal day 2 (P2) Sprague Dawley rat cortices were aseptically dissected and trypsinized for 20 min at 37° C. in 0.25% trypsin-EDTA (GIBCO) and DNAse (0.2 mg/ml, Worthington). Enzyme action was stopped by the addition of soybean trypsin inhibitor (SIGMA)) and DNAse. Tissue was dissociated into single cell suspension by trituration with a 5 ml pipette, filtered though a 40 μm nylon filter and centrifuged at 500×g for 3 minutes. The pellet was taken up in medium (DMEM/10% fetal bovine serum) and cells were plated into poly-D-lysine (10 μg/ml, SIGMA) T75 flasks (one flask/cortex). After 23 days, astrocytes were trypsinized and replated at a density of 500,000 cells per well into poly-D-lysine-coated 24 well plates. Cultures were grown for an additional 20 days in order to let astrocytes mature. This maturation is known to make the astrocytes less permissive for neurite outgrowth (see G. M. Smith, et al., Developmental Biology, 138, 377-390 (1990), and G. M. Smith and J. Silver, Progress in Brain Research, Vol. 78, Chapt. 46, D. M. Cash and J. R. Sladek, ed., Elsevier, 1988.\nCortical neurons: mixed cortical cells were dissociated from embryonic day 18 Sprague Dawley rat embryos as described for astrocytes. In order to obtain more pure neuonal cultures, cells were subjected to a differential adhesion by pre-plating them on a non-coated bacterial dish (100 mm diameter) for 1 hour. Non-neuronal cells stick to this plate while neurons stay in the supernatant. Neurons were added to the aged astrocytes at a density of 10,000 cells/well in DEME/10% fetal bovine serum. One day later, the cultures were treated with 1 μg/ml and 10 μg/ml of N-4[4-[(4-fluorophenyl)sulfonyl]phenyl]acetamide. 1 week after treatment, cultures were fixed and immunostained with monoclonal anti-tubulin antibody (SIGMA, 1:800 diluted), followed by rhodamine-conjugated goat-anti-mouse secondary (1:100 dilution). Tubulin labels axons and dentrites.\nAnalysis: Tubulin-positive cell bodies with a process at least two cell diameters long were counted in 5 visual fields under 10× magnification with a Nikon Eclipse 2000 inverted microscope. Results were expressed as means of quadruplicate wells+/−SEM and are shown in Table I. Any patent application to which this application claims priority is incorporated by reference herein in its entirety."}, "[2]": {"system": "spinal cord of an injured recipient animal", "assay": "Bone marrow cell implantation at spinal cord injury site with BrdU labelling", "assay_type": "in vivo, rat", "details": "12 weeks after implantation of bone marrow cells from orally treated donor", "method": "In preferred embodiments, the invention relates to regenerating nerve tissue in vivo. Methods of the invention include administering a therapeutically effective dose of a composition of the invention to a first mammal in need of neural regeneration. In some embodiments, a compound of Formula (I) or Formula (II) is administered, preferably orally administered, to a mammal in need of tissue regeneration, preferably neural tissue regeneration. In some embodiments, methods of the invention comprise administering a compound of Formula (I) or Formula (II) to a first mammal, harvesting cells from the first mammal after administration of the compound and subsequently delivering the harvested cells locally at a site where increased neural expression or increased neural regeneration is needed, wherein the injury site can be in the first mammal or in a second mammal. In some embodiments, the compositions of the invention can be administered intralesionally. Preferably, the harvested cells are from any type of stem cell, for example bone marrow cells. For example, bone marrow cells can be collected from a donor animal (e.g., a rat) within two weeks, preferably within three to seven days, after oral administration of N-[4-[(4-fluorophenyl)sulfonyl]phenyl]acetamide in a pharmaceutically acceptable carrier to the donor animal. […]"}, "[3]": {"system": "passaged astrocytes", "assay": "Highly enriched passaged astrocyte cultures, immunostaining", "assay_type": "cell-based, rat", "details": "astrocytes passaged 3 times; untreated controls at a significantly reduced level", "method": "The method of the invention is also exemplified by a third embodiment in which astrocytes are passaged 3 times prior to in vitro treatment with the compound and samples derived from the whole cortex were compared to samples enriched for tissue from the subventricular zone.\nFor some experiments, freshly dissociated cortical cells were plated in poly lysine coated T-75 flasks. Cells were fed twice weekly with DMEM+10% FBS. After reaching confluence, cells were removed from the T-75 flask with typsin/EDTA (Gibco), pelleted and media removed. The cell pellet was resuspended in DMEM+10% FBS and split 1 to 5 into new T-75 flasks. This process was repeated 2 more times. After reaching confluence on the fourth passage, cells were removed from the T-75 flask as describe above and plated on poly lysine coated 24 well cluster plates at a density of 1×10^5 cells per well. Cells were maintained in DMEM+10% FB S until they reached confluence at which point, the media was removed and replaced with NeuralBasal+B27 supplementsN-[4-[(4-fluorophenyl)sulfonyl]phenyl]acetamide was dissolved in 2 hydroxypropyl-β-cyclodextrin and added to cultures at final concentrations ranging from 100 μg/ml to 10 ng/ml. […]"}},
  "data": [
    {"smiles": "CC(=O)Nc1ccc(S(=O)(=O)c2ccc(F)cc2)cc1", "note": "[N-[4-[(4-fluorophenyl)sulfonyl]phenyl]acetamide]", "values": [
      {"measurement": "Number of Neurons, Well 2", "setting": "[1]; 1 μg/ml", "value": 103},
      {"measurement": "Number of Neurons, Well 4", "setting": "[1]; 1 μg/ml", "value": 176},
      {"measurement": "Number of Neurons, Well 3", "setting": "[1]; 1 μg/ml", "value": 171},
      {"measurement": "Number of Neurons, Well 1", "setting": "[1]; 1 μg/ml, control 93", "value": 132},
      {"measurement": "Number of Neurons, mean", "setting": "[1]; 1 μg/ml, mean of quadruplicate wells", "value": 145.50},
      {"measurement": "Number of Neurons, Well 2", "setting": "[1]; 10 μg/ml", "value": 129},
      {"measurement": "Number of Neurons, Well 4", "setting": "[1]; 10 μg/ml", "value": 133},
      {"measurement": "Number of Neurons, Well 3", "setting": "[1]; 10 μg/ml", "value": 173},
      {"measurement": "Number of Neurons, mean", "setting": "[1]; 10 μg/ml, mean of wells", "value": 145.00},
      {"measurement": "BrdU incorporation and expression of nestin, beta-tubulin and GFAP in spinal cord tissue", "setting": "[2]", "value": "shows incorporation of BrdU in cell nuclei, as well as expression of nestin, beta-tubulin and GFAP"},
      {"measurement": "beta-tubulin positive cells with neuronal morphologies", "setting": "[3]", "value": "show beta-tubulin positive cells with neuronal morphologies"}
    ]}
  ]
}
